According to patent publication US9562085B2, “Antimicrobial peptide” (priority 2013, dated 2017):
Non-standard residues stand in square brackets, D forms with d. Residues, ends and D or L forms follow the SMILES beside them.

These compounds were tested on S. aureus JAR. Conditions: JAR, 2 h.
Assay type: cell-based
Protocol: S. aureus JAR is described in Campoccia et al. (Int. J. Artif. Organs, 2008 September; 31(9):841-7).
For the in vitro killing assay with P10 variants, S. aureus JAR ([…] CFU/ml) were incubated for 2 hours at 37° C. with various concentrations of the peptides in PBS or in PBS/human plasma (1/1, v/v). […] The LC99.9 is the average value of two independent experiments.

SMILES	LC99.9 (μM) (50% plasma)	LC99.9 (μM) (PBS)
CC[C@H](C)[C@H](NC(=O)[C@H](CCCCN)NC(=O)[C@H](CCCCN)NC(=O)[C@H](Cc1ccc(O)cc1)NC(=O)[C@H](CCC(=O)O)NC(=O)[C@H](CCCNC(=N)N)NC(=O)[C@H](C)NC(=O)[C@H](CC(C)C)NC(C)=O)C(=O)N[C@H](C(=O)N[C@@H](CCC(=O)O)C(=O)N[C@@H](CCCCN)C(=O)N[C@@H](CC(C)C)C(=O)N[C@H](CCCCN)C(=O)N[C@@H](CCCNC(=N)N)C(=O)N[C@@H](Cc1c[nH]c2ccccc12)C(=O)N[C@@H](CC(C)C)C(=O)N[C@@H](CCCNC(=N)N)C(=O)N[C@@H](CCC(N)=O)C(=O)N[C@H](C(=O)N[C@@H](CC(C)C)C(=O)N[C@@H](CCCNC(=N)N)C(=O)N[C@H](C(=O)N[C@@H](CC(C)C)C(=O)N[C@@H](CCCNC(=N)N)C(N)=O)[C@@H](C)O)C(C)C)C(C)C [Peptide 1301-13, JLAREYKKIVEKLkRWLRQVLRTLRB] (Ac-LAREYKKIVEKL[dK]RWLRQVLRTLR-NH2)	38.4 µM	0.6 µM
CC[C@H](C)[C@H](NC(=O)[C@H](CCCCN)NC(=O)[C@H](CCCCN)NC(=O)[C@H](Cc1ccc(O)cc1)NC(=O)[C@H](CCC(=O)O)NC(=O)[C@H](CCCNC(=N)N)NC(=O)[C@H](C)NC(=O)[C@H](CC(C)C)NC(C)=O)C(=O)N[C@H](C(=O)N[C@@H](CCC(=O)O)C(=O)N[C@@H](CCCCN)C(=O)N[C@@H](CC(C)C)C(=O)N[C@@H](CCCCN)C(=O)N[C@H](CCCNC(=N)N)C(=O)N[C@@H](Cc1c[nH]c2ccccc12)C(=O)N[C@@H](CC(C)C)C(=O)N[C@@H](CCCNC(=N)N)C(=O)N[C@@H](CCC(N)=O)C(=O)N[C@H](C(=O)N[C@@H](CC(C)C)C(=O)N[C@@H](CCCNC(=N)N)C(=O)N[C@H](C(=O)N[C@@H](CC(C)C)C(=O)N[C@@H](CCCNC(=N)N)C(N)=O)[C@@H](C)O)C(C)C)C(C)C [Peptide 1301-14, JLAREYKKIVEKLKrWLRQVLRTLRB] (Ac-LAREYKKIVEKLK[dR]WLRQVLRTLR-NH2)	38.4 µM	0.6 µM
CC[C@H](C)[C@H](NC(=O)[C@H](CCCCN)NC(=O)[C@H](CCCCN)NC(=O)[C@H](Cc1ccc(O)cc1)NC(=O)[C@H](CCC(=O)O)NC(=O)[C@H](CCCNC(=N)N)NC(=O)[C@H](C)NC(=O)[C@H](CC(C)C)NC(C)=O)C(=O)N[C@H](C(=O)N[C@@H](CCC(=O)O)C(=O)N[C@@H](CCCCN)C(=O)N[C@@H](CC(C)C)C(=O)N[C@@H](CCCCN)C(=O)N[C@@H](CCCNC(=N)N)C(=O)N[C@H](Cc1c[nH]c2ccccc12)C(=O)N[C@@H](CC(C)C)C(=O)N[C@@H](CCCNC(=N)N)C(=O)N[C@@H](CCC(N)=O)C(=O)N[C@H](C(=O)N[C@@H](CC(C)C)C(=O)N[C@@H](CCCNC(=N)N)C(=O)N[C@H](C(=O)N[C@@H](CC(C)C)C(=O)N[C@@H](CCCNC(=N)N)C(N)=O)[C@@H](C)O)C(C)C)C(C)C [Peptide 1301-15, JLAREYKKIVEKLKRwLRQVLRTLRB] (Ac-LAREYKKIVEKLKR[dW]LRQVLRTLR-NH2)	38.4 µM	0.4 µM
CC[C@H](C)[C@H](NC(=O)[C@H](CCCCN)NC(=O)[C@H](CCCCN)NC(=O)[C@H](Cc1ccc(O)cc1)NC(=O)[C@H](CCC(=O)O)NC(=O)[C@H](CCCNC(=N)N)NC(=O)[C@H](C)NC(=O)[C@H](CC(C)C)NC(C)=O)C(=O)N[C@H](C(=O)N[C@@H](CCC(=O)O)C(=O)N[C@@H](CCCCN)C(=O)N[C@@H](CC(C)C)C(=O)N[C@@H](CCCCN)C(=O)N[C@@H](CCCNC(=N)N)C(=O)N[C@@H](Cc1c[nH]c2ccccc12)C(=O)N[C@H](CC(C)C)C(=O)N[C@@H](CCCNC(=N)N)C(=O)N[C@@H](CCC(N)=O)C(=O)N[C@H](C(=O)N[C@@H](CC(C)C)C(=O)N[C@@H](CCCNC(=N)N)C(=O)N[C@H](C(=O)N[C@@H](CC(C)C)C(=O)N[C@@H](CCCNC(=N)N)C(N)=O)[C@@H](C)O)C(C)C)C(C)C [Peptide 1301-16, JLAREYKKIVEKLKRWlRQVLRTLRB] (Ac-LAREYKKIVEKLKRW[dL]RQVLRTLR-NH2)	38.4 µM	0.6 µM
CC[C@H](C)[C@H](NC(=O)[C@H](CCCCN)NC(=O)[C@H](CCCCN)NC(=O)[C@H](Cc1ccc(O)cc1)NC(=O)[C@H](CCC(=O)O)NC(=O)[C@H](CCCNC(=N)N)NC(=O)[C@H](C)NC(=O)[C@H](CC(C)C)NC(C)=O)C(=O)N[C@H](C(=O)N[C@@H](CCC(=O)O)C(=O)N[C@@H](CCCCN)C(=O)N[C@@H](CC(C)C)C(=O)N[C@@H](CCCCN)C(=O)N[C@@H](CCCNC(=N)N)C(=O)N[C@@H](Cc1c[nH]c2ccccc12)C(=O)N[C@@H](CC(C)C)C(=O)N[C@H](CCCNC(=N)N)C(=O)N[C@@H](CCC(N)=O)C(=O)N[C@H](C(=O)N[C@@H](CC(C)C)C(=O)N[C@@H](CCCNC(=N)N)C(=O)N[C@H](C(=O)N[C@@H](CC(C)C)C(=O)N[C@@H](CCCNC(=N)N)C(N)=O)[C@@H](C)O)C(C)C)C(C)C [Peptide 1301-17, JLAREYKKIVEKLKRWLrQVLRTLRB] (Ac-LAREYKKIVEKLKRWL[dR]QVLRTLR-NH2)	38.4 µM	0.6 µM
CC[C@H](C)[C@H](NC(=O)[C@H](CCCCN)NC(=O)[C@H](CCCCN)NC(=O)[C@H](Cc1ccc(O)cc1)NC(=O)[C@H](CCC(=O)O)NC(=O)[C@H](CCCNC(=N)N)NC(=O)[C@H](C)NC(=O)[C@H](CC(C)C)NC(C)=O)C(=O)N[C@H](C(=O)N[C@@H](CCC(=O)O)C(=O)N[C@@H](CCCCN)C(=O)N[C@@H](CC(C)C)C(=O)N[C@@H](CCCCN)C(=O)N[C@@H](CCCNC(=N)N)C(=O)N[C@@H](Cc1c[nH]c2ccccc12)C(=O)N[C@@H](CC(C)C)C(=O)N[C@@H](CCCNC(=N)N)C(=O)N[C@H](CCC(N)=O)C(=O)N[C@H](C(=O)N[C@@H](CC(C)C)C(=O)N[C@@H](CCCNC(=N)N)C(=O)N[C@H](C(=O)N[C@@H](CC(C)C)C(=O)N[C@@H](CCCNC(=N)N)C(N)=O)[C@@H](C)O)C(C)C)C(C)C [Peptide 1301-18, JLAREYKKIVEKLKRWLRqVLRTLRB] (Ac-LAREYKKIVEKLKRWLR[dQ]VLRTLR-NH2)	38.4 µM	0.6 µM
CC[C@H](C)[C@H](NC(=O)[C@H](CCCCN)NC(=O)[C@H](CCCCN)NC(=O)[C@H](Cc1ccc(O)cc1)NC(=O)[C@H](CCC(=O)O)NC(=O)[C@H](CCCNC(=N)N)NC(=O)[C@H](C)NC(=O)[C@H](CC(C)C)NC(C)=O)C(=O)N[C@H](C(=O)N[C@@H](CCC(=O)O)C(=O)N[C@@H](CCCCN)C(=O)N[C@@H](CC(C)C)C(=O)N[C@@H](CCCCN)C(=O)N[C@@H](CCCNC(=N)N)C(=O)N[C@@H](Cc1c[nH]c2ccccc12)C(=O)N[C@@H](CC(C)C)C(=O)N[C@@H](CCCNC(=N)N)C(=O)N[C@@H](CCC(N)=O)C(=O)N[C@@H](C(=O)N[C@@H](CC(C)C)C(=O)N[C@@H](CCCNC(=N)N)C(=O)N[C@H](C(=O)N[C@@H](CC(C)C)C(=O)N[C@@H](CCCNC(=N)N)C(N)=O)[C@@H](C)O)C(C)C)C(C)C [Peptide 1301-19, JLAREYKKIVEKLKRWLRQvLRTLRB] (Ac-LAREYKKIVEKLKRWLRQ[dV]LRTLR-NH2)	32.0 µM	0.6 µM
CC[C@H](C)[C@H](NC(=O)[C@H](CCCCN)NC(=O)[C@H](CCCCN)NC(=O)[C@H](Cc1ccc(O)cc1)NC(=O)[C@H](CCC(=O)O)NC(=O)[C@H](CCCNC(=N)N)NC(=O)[C@H](C)NC(=O)[C@H](CC(C)C)NC(C)=O)C(=O)N[C@H](C(=O)N[C@@H](CCC(=O)O)C(=O)N[C@@H](CCCCN)C(=O)N[C@@H](CC(C)C)C(=O)N[C@@H](CCCCN)C(=O)N[C@@H](CCCNC(=N)N)C(=O)N[C@@H](Cc1c[nH]c2ccccc12)C(=O)N[C@@H](CC(C)C)C(=O)N[C@@H](CCCNC(=N)N)C(=O)N[C@@H](CCC(N)=O)C(=O)N[C@H](C(=O)N[C@H](CC(C)C)C(=O)N[C@@H](CCCNC(=N)N)C(=O)N[C@H](C(=O)N[C@@H](CC(C)C)C(=O)N[C@@H](CCCNC(=N)N)C(N)=O)[C@@H](C)O)C(C)C)C(C)C [Peptide 1301-20, JLAREYKKIVEKLKRWLRQVlRTLRB] (Ac-LAREYKKIVEKLKRWLRQV[dL]RTLR-NH2)	38.4 µM	0.6 µM
CC[C@H](C)[C@H](NC(=O)[C@H](CCCCN)NC(=O)[C@H](CCCCN)NC(=O)[C@H](Cc1ccc(O)cc1)NC(=O)[C@H](CCC(=O)O)NC(=O)[C@H](CCCNC(=N)N)NC(=O)[C@H](C)NC(=O)[C@H](CC(C)C)NC(C)=O)C(=O)N[C@H](C(=O)N[C@@H](CCC(=O)O)C(=O)N[C@@H](CCCCN)C(=O)N[C@@H](CC(C)C)C(=O)N[C@@H](CCCCN)C(=O)N[C@@H](CCCNC(=N)N)C(=O)N[C@@H](Cc1c[nH]c2ccccc12)C(=O)N[C@@H](CC(C)C)C(=O)N[C@@H](CCCNC(=N)N)C(=O)N[C@@H](CCC(N)=O)C(=O)N[C@H](C(=O)N[C@@H](CC(C)C)C(=O)N[C@H](CCCNC(=N)N)C(=O)N[C@H](C(=O)N[C@@H](CC(C)C)C(=O)N[C@@H](CCCNC(=N)N)C(N)=O)[C@@H](C)O)C(C)C)C(C)C [Peptide 1301-21, JLAREYKKIVEKLKRWLRQVLrTLRB] (Ac-LAREYKKIVEKLKRWLRQVL[dR]TLR-NH2)	38.4 µM	0.6 µM
CC[C@H](C)[C@H](NC(=O)[C@H](CCCCN)NC(=O)[C@H](CCCCN)NC(=O)[C@H](Cc1ccc(O)cc1)NC(=O)[C@H](CCC(=O)O)NC(=O)[C@H](CCCNC(=N)N)NC(=O)[C@H](C)NC(=O)[C@H](CC(C)C)NC(C)=O)C(=O)N[C@H](C(=O)N[C@@H](CCC(=O)O)C(=O)N[C@@H](CCCCN)C(=O)N[C@@H](CC(C)C)C(=O)N[C@@H](CCCCN)C(=O)N[C@@H](CCCNC(=N)N)C(=O)N[C@@H](Cc1c[nH]c2ccccc12)C(=O)N[C@@H](CC(C)C)C(=O)N[C@@H](CCCNC(=N)N)C(=O)N[C@@H](CCC(N)=O)C(=O)N[C@H](C(=O)N[C@@H](CC(C)C)C(=O)N[C@@H](CCCNC(=N)N)C(=O)N[C@@H](C(=O)N[C@@H](CC(C)C)C(=O)N[C@@H](CCCNC(=N)N)C(N)=O)[C@H](C)O)C(C)C)C(C)C [Peptide 1301-22, JLAREYKKIVEKLKRWLRQVLRtLRB] (Ac-LAREYKKIVEKLKRWLRQVLR[dT]LR-NH2)	38.4 µM	0.6 µM
